How the values were obtained:
[1] = test system: Paclitaxel-induced allodynia; experiment: Paclitaxel-induced allodynia in Sprague Dawley rats (von Frey assay); assay type: in vivo
Experimental: Example 5: Paclitaxel-induced Allodynia in Sprague Dawley Rats
Therapy however is often associated with the unwanted side affects of painful peripheral neuropathy.
Male Sprague Dawley rats [200-250 g] (Harlan Laboratories Inc., Livermore, Calif.) were housed three per cage and maintained in a humidity-controlled (40-60%) and temperature-controlled (68-72° F.) facility on a 12 h:12 h light/dark cycle (lights on at 6:30 am) with free access to food (Harlan Teklad, Orange, Calif., Rodent Diet 8604) and water. Rats were allowed one week of habituation to the animal facility before starting treatment.
Rats were treated intraperitoneally, with 2 mg/kg of paclitaxel (Sigma Aldrich, Saint Louis, Mo.) in 10% Cremophor vehicle (500 μL) on days 0, 2, 4, and 6.
Tactile allodynia was tested using von Frey filaments. Briefly, the von Frey assay was performed using the standardized up down method with von Frey filaments, that determine the tactile sensitivity of the paw. By applying the increasingly or decreasingly thicker filaments to the paw in a logarithmic scale of actual force, a linear scale of perceived intensity is determined.
Eight days after the start of paclitaxel dosing, a baseline measurement (von Frey assay) was performed prior to dosing of compounds. […] As a positive control, rats were dosed intraperitoneally with 100 mg/kg gabapentin in water. […]

[2] = Dynamic moisture-sorption (DMS) analysis; assay type: physicochemical
Experimental: Example 9: Dynamic Moisture-Sorption Analysis
A dynamic moisture-sorption (DMS) study was conducted using a dynamic moisture-sorption analyzer, VTI Corporation, SGA-100. The instrument was calibrated using polyvinyl pyrrolidone (PVP) and NaCl. Samples were prepared for DMS analysis by placing 5 mg to 20 mg of a sample in a tared sample holder. The sample was placed on the hang-down wire of the VTI balance. A drying step was run, typically at 40° C. and 0.5-1% RH for 1 h. The isotherm temperature is 25° C. Defined % RH holds typically ranged from 10% RH to 90% RH, with intervals of 10 to 20% RII. A % weight change smaller than 0.010% over 10 min, or up to 2 h, whichever occurred first, was required before continuing to the next % RH hold. The water content of the sample equilibrated as described above was determined at each % RH hold.

Row | Structure (SMILES) | paw withdrawal threshold (PWT) ([1]; 10 mg/kg orally in PEG400, paclitaxel treated rats, von Frey assay 30, 60 and 180 minutes after dosing, in comparison with vehicle and gabapentin) | time of maximum efficacy post-dosing ([1]; 10 mg/kg orally, paclitaxel treated rats, von Frey assay time course) [h] | Weight (% Change) ([2]; Sample RH […], elapsed time 46.6 min, 25.46) | Weight (% Change) ([2]; adsorption, Sample RH 29.94%, elapsed time 71.4 min) | Weight (% Change) ([2]; adsorption, Sample RH 49.86%, elapsed time 91.1 min) | Weight (% Change) ([2]; adsorption, Sample RH 69.77%, elapsed time 111.2 min) | Weight (% Change) ([2]; adsorption, Sample RH 79.70%, elapsed time 129.1 min) | Weight (% Change) ([2]; adsorption, Sample RH 89.72%, elapsed time 160.1 min) | DMS weight change ([2]; adsorption/desorption isotherm, from about 10% relative humidity (RH) to about 90% RH) | DMS weight change ([2]; after a 10% RH to 90% RH back to 10% RH cycle) | Weight (% Change) ([2]; desorption, Sample RH 10.06%, elapsed time 234.4 min) | Weight (% Change) ([2]; desorption, Sample RH 29.99%, elapsed time 218.6 min) | Weight (% Change) ([2]; desorption, Sample RH 50.07%, elapsed time 200.1 min) | Weight (% Change) ([2]; desorption, Sample RH 70.11%, elapsed time 180.1 min)
1 | CC(C)(CO)NC(=O)c1nn(-c2ccc(F)cc2F)c2c1C[C@H]1C[C@@H]21 [Compound 493, (1aR,5aR)-2-(2,4-Difluoro-phenyl)-1a,2,5,5a-tetrahydro-1H-2,3-diaza-cyclopropa[a]pentalene-4-carboxylic Acid (2-Hydroxy-1,1-dimethyl-ethyl)-amide] | increase | 1 | – | – | – | – | – | – | – | – | – | – | – | –
2 | CC(C)(C)[C@@H](CO)NC(=O)c1nn(-c2c[n+]([O-])ccn2)c2c1C[C@@H]1C[C@H]21 [Compound 699 (Anhydrous Form), (1aS,5aS)-2-(4-Oxy-pyrazin-2-yl)-1a,2,5,5a-tetrahydro-1H-2,3-diaza-cyclopropa[a]pentalene-4-carboxylic Acid ((S)-1-Hydroxymethyl-2,2-dimethyl-propyl)-amide] | – | – | 0 | 0.151 | 0.282 | 0.482 | 0.581 | 0.762 | 1.0% or less weight change from about 10% relative humidity | (RH) to about 90% RH; and about 0.1% or less weight change | 0.080 | 0.181 | 0.364 | 0.526
